Measured values from patent US6034211A, “β-sheet nucleating peptidomimetics” (priority 1996, dated 2000).
Starred links: 1 amine or outer side, 2 acyl side, 3 side chain; linkers in the order of their positions; H or OH if unused. Non-standard residues stand in square brackets, D forms with d. Residues, ends and D or L forms follow the SMILES beside them. X1 = O=C(CCc1ccccc1-c1cccc(CCN[*:1])c1)[*:2]; Orn = NCCC[C@H](N)C(=O)O

Experiments:
[1] = Amide proton/deuterium exchange studies by NMR; type: physicochemical; conditions: for rates of amide proton/deuterium exchange of the Leu and Val residues flanking 1 relative to the remaining residues: peptide A 3.0-3.3 mM, pH 3.4-3.6, peptide D 2.5-2.9 mM, pH 4.1-5.1
Description: Information concerning the hydrogen-bonding network within a peptide containing residue 1A in aqueous solution was obtained from amide exchange studies of peptide A (3.0-3.3 mM, pH 3.4-3.6) and peptide D (2.5-2.9 mM, pH 4.1-5.1) where peptides A and D appear to be unstructured by far-UV CD.
Amide exchange studies at pH 3.2 were used to examine the hydrogen-bonding properties of peptide G which is expected to be partially folded on the basis of the studies discussed above.

[2] = Analytical equilibrium ultracentrifugation (solution molecular weight, quaternary structure)
[3] = Far-UV circular dichroism studies of peptide folding (random coil vs β-sheet); type: physicochemical
Description: Heptapeptide A has an -amino acid sequence homologous to a 4-(2-aminoethyl)-6-dibenzofuranpropionic acid-based heptapeptide studied previously, allowing comparsion of the efficacy of the biphenyl- and dibenzofuran-based amino acids as nucleators in a momologous α-aminoacid sequence. Peptide B, having a Phe in place of Leu-3, was prepared to test the feasibility of using an aromatic-aromatic interaction to stabilize the hydrophobic cluster and facilitate β-sheet folding. In peptide C, ornithine-2 was replaced with Glu to probe the effect of an addition long-range residue-residue electrostatic interaction (salt bridge) on β-sheet stability in the context of a heptapeptide.
The high charge density on peptides D and E should prevent the favorable strand-strand interactions required for sheet formation at low pH. The removal of two or more of the charges on the Lys ε-ammonium groups effected by increasing the pH is expected to facilitate intramolecular folding followed by self-assembly. A leucine was employed as one of the flanking residues in these peptides instead of valine because the increased side chain flexibility should maximize packing interactions required for hydrophobic cluster formation. […] Peptide E was identical to peptide D except that it incorporated residue 2A in place of residue 1A. […] Peptide F was prepared to probe the importance of hydrophobic cluster formation in β-sheet folding mediated by residue 1A. The flanking hydrophobic residues in peptide D were replaced with hydrophilic lysine residues in peptide F while maintaining a highly momologous amino acid composition and an amphiphilic periodicity of 2A.

rates of amide proton/deuterium exchange of the Leu and Val residues flanking 1 relative to the remaining residues [1] | observed solution molecular weight (expected monomer 1644) ([2]; 0.11 mM, pH 6.8) | association state by analytical equilibrium ultracentrifugation ([2]; within the concentration and pH ranges studied) | association state by concentration dependent far-UV CD ([3]; 0.015-0.4 mM, pH 7, mean residue ellipticity at 225 nm constant) | pH dependence of far-UV CD spectra ([3]; 25° C.) | structure by far-UV CD ([3]; 25° C.) | aggregation upon heating ([3]; upon heating) | change of structure upon heating (far-UV CD) ([3]; upon heating) | rates of amide proton exchange of Leu-6, Val-8, Val-4 and Val-10 relative to the remaining residues ([1]; pH 3.2) | Molecule
at least an order of magnitude slower |  |  |  |  |  |  |  |  | CC(C)C[C@H](NC(=O)[C@H](CCCCN)NC(=O)[C@@H](NC(=O)[C@H](CCCCN)NC(=O)[C@@H](NC(=O)[C@@H](N)CCCCN)C(C)C)C(C)C)C(=O)NCCc1cccc(-c2ccccc2CCC(=O)N[C@H](C(=O)N[C@@H](CCCCN)C(=O)N[C@H](C(=O)N[C@@H](CCCCN)C(=O)N[C@H](C(=O)N[C@@H](CCCCN)C(N)=O)C(C)C)C(C)C)C(C)C)c1 [Peptide D, Lys Val Lys Val Lys Leu 1A Val Lys Val Lys Val Lys] (H-KVKVKL[X1]VKVKVK-NH2)
at least an order of magnitude slower |  |  |  |  |  |  |  |  | CC(C)C[C@H](NC(=O)[C@H](CCCN)NC(=O)[C@@H](NC(=O)CCc1ccccc1-c1cccc(CCNC(=O)[C@H](CC(C)C)NC(=O)[C@H](CCCN)NC(=O)[C@@H](N)C(C)C)c1)C(C)C)C(N)=O [A, Val Orn Leu 1A Val Orn Leu] (H-V[Orn]L[X1]V[Orn]L-NH2)
 | 1600±80 | monomeric | monomeric | little dependence on pH | both random coil and β-sheet structure | does not aggregate | increase in β-sheet structure | significantly slower | Lys Val N--Me--Leu Val Lys Leu 1A Val Lys Val N--Me--Leu Val Lys [Peptide G]
